This passage reports EC50 and IC50 results from patent publication US12662469B2 (SIRONAX LTD, priority 2018, dated 2026).

The subject of one test is Cell Necrosis. The experiment in a line: Cell necrosis assay / cell viability assay (necrosis inhibitor activity). The format is cell-based.
Another test addresses T1, Human RIP1 kinase (Homo sapiens, UniProt Q13546).
T1 sequence (Q13546 1-671): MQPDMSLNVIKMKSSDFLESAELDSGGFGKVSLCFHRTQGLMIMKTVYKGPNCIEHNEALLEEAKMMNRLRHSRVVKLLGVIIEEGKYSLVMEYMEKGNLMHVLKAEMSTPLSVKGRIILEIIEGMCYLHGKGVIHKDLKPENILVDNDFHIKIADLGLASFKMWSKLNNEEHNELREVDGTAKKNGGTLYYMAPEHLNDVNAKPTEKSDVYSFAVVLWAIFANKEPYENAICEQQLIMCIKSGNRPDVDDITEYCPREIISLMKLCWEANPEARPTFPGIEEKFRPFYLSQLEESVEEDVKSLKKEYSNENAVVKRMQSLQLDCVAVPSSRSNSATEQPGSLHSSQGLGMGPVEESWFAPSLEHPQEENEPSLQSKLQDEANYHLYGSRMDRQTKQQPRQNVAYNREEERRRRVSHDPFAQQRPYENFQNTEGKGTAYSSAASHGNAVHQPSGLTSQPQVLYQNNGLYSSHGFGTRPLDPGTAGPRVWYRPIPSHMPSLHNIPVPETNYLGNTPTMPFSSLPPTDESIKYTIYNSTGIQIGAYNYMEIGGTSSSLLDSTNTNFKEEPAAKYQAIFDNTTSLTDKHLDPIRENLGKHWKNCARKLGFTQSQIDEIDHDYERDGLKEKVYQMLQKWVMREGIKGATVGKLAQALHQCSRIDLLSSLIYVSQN
Briefly: Human RIP1 kinase assay. The format is biochemical. The conditions noted are these: representative, exemplary data.

Setting [1] is: necrosis inhibitor activity, EC data for 14-191 extrapolated, read-out: EC50.
Setting [2] is: representative, exemplary data, read-out: Cell viability assay, EC50.

Structures are written as SMILES. Like-named read-outs stand apart in the source and are kept apart here.

In the case of `O=C(N1CC(Oc2ccc(F)cc2F)C1)N1OCC[C@H]1c1ccccc1` [Compound 80, (S)-(3-(2,4-difluorophenoxy)azetidin-1-yl)(3-phenylisoxazolidin-2-yl)methanone], the EC50 is 1 to 1000 nM with Cell Necrosis (setting [1]) and 1 to 100 nM in the test on Cell Necrosis (setting [2]). This molecule displayed an IC50 against Human RIP1 kinase of less than 100 nM.

Take `O=C(N1CC(Cc2cccc(F)c2)C1)N1N=CCC1c1ccccc1` (stereo not drawn) [Compound 41, (3-(3-fluorobenzyl)azetidin-1-yl)(5-phenyl-4,5-dihydro-1H-pyrazol-1-yl)methanone]: the concentration giving a half-maximal response (EC50) is 1 to 1000 nM in the test on Cell Necrosis (setting [1]) and 1 to 100 nM in the test on Cell Necrosis (setting [2]). The same molecule registered an IC50 on Human RIP1 kinase of less than 100 nM.

Regarding `O=C(N1CC[C@@H](Oc2ccccc2)C1)N1N=CCC1c1ccccc1` (single isomer, unassigned) [Compound 26B], the figures for the EC50 in the test on Cell Necrosis (setting [1]) and with Cell Necrosis (setting [2]) were 1000 to 10000 nM and more than 1000 nM, respectively. The molecule further showed an IC50 on Human RIP1 kinase of more than 1000 nM.

As for `NC(=O)c1csc(OC2CN(C(=O)N3N=CCC3c3cc(F)cc(F)c3)C2)n1` (stereo not drawn) [Compound 132, 2-((1-(5-(3,5-difluorophenyl)-4,5-dihydro-1H-pyrazole-1-carbonyl)azetidin-3-yl)oxy)thiazole-4-carboxamide], the EC50 in the test with Cell Necrosis (setting [1]) was 1 to 1000 nM; with Cell Necrosis (setting [2]), 1 to 100 nM. The IC50 against Human RIP1 kinase is less than 100 nM.

On to `O=C(N1CC[C@@H](Oc2ccccc2)C1)N1N=CCC1c1ccccc1` (single isomer, unassigned) [Compound 26A], for which the EC50 in the test on Cell Necrosis (setting [1]) and with Cell Necrosis (setting [2]) was 1 to 1000 nM each time. In addition, the IC50 on Human RIP1 kinase is less than 100 nM.

`O=C(N1CCC1)N1N=CCC1c1ccccc1` (stereo not drawn) [Compound 1, azetidin-1-yl(5-phenyl-4,5-dihydro-1H-pyrazol-1-yl)methanone]: the EC50 in the test with Cell Necrosis (necrosis inhibitor activity, compounds outside 14-191, read-out: EC50) lay within 1000 to 10000 nM; in the test with Cell Necrosis (setting [2]) it was 1 to 10000 nM. In addition, the IC50 at Human RIP1 kinase is approximately 1000 nM.

Regarding `O=C(N1CC(Oc2ccc(F)cc2F)C1)N1N=CCC1c1cc(F)cc(F)c1` (stereo not drawn) [Compound 76, (3-(2,4-difluorophenoxy)azetidin-1-yl)(5-(3,5-difluorophenyl)-4,5-dihydro-1H-pyrazol-1-yl)methanone], the EC50 was 1 to 1000 nM with Cell Necrosis (setting [1]) and 1 to 100 nM in the test on Cell Necrosis (setting [2]). The molecule also had an IC50 against Human RIP1 kinase of less than 100 nM.

As for `O=C(NC1Cc2ccccc2C1)N1N=CCC1c1ccccc1` (stereo not drawn) [Compound 14, N-(2,3-dihydro-H-inden-2-yl)-5-phenyl-4,5-dihydro-1H-pyrazole-1-carboxamide], the EC50 in the test on Cell Necrosis (setting [1]) and in the test with Cell Necrosis (setting [2]) was 1 to 1000 nM each time. The IC50 against Human RIP1 kinase lay in the range of 100 to 1000 nM.

What is called EC50 is the midpoint of the concentration-response curve. As usually defined, the IC50 is the concentration that gives 50% inhibition. Read a low IC50 as greater potency in that assay.
